# Data published in paper PMC3144492 (Biochemistry, 2011).
# Tested on: SpUP
# Conditions: 50 mM phosphate (co-substrate), 50 mM HEPES, pH 7.5
compound,measurement,value
O=c1ccn([C@@H]2O[C@H](CO)[C@@H](O)[C@H]2O)c(=O)[nH]1 [uridine],Km,171 ± 5 µM
